{
  "source": "patent US6426093B1",
  "about": "“Synergistic biocidal activity if ternary complexes of negatively-charged biocides (component A), transition metal ions (component B), and neutral chelators (component C)” (Yissum Research Development Company of the Hebrew …, priority 1998, dated 2002)",
  "key": {"[1]": {"tested_on": "E. coli", "assay": "E. coli inactivation, survival by colony-forming ability", "assay_type": "cell-based", "method": "A sample of bacteria from the stock solution was diluted 100-fold in “reaction buffer” to a final concentration of 0.6 OD600 (4.8×10^6 cells/ml). Various agents were added to the bacteria following 15 minutes of preincubation at 37° C. Aliquots were removed at indicated time points into “termination buffer” to stop the reaction, and diluted by a factor of 50 to 10^6. Samples from each dilution were then plated on LB agar and grown overnight at 37° C. Each sample was plated at least five times. The colonies formed were then counted. Survival curves were evaluated from colony counts. Each experiment was repeated at least three times, and the mean values and standard error of triplicates were calculated.\nIn the experiments shown in FIG. 3, all the incubation mixtures contained glucose (0.5% w/v) and MgSO4 (1 mM) in HEPES buffer (10 mM, pH=7.4), and bacteria (4.8×10^6 cells/ml). The cells were exposed to the combination of PCP (0.5 mM) and Fe(OP)3 (5 μM)—designated open triangles; or with the addition of DMSO (5%)—designated closed triangles; or with SOD (50 U/ml)—designated open circles. The results presented in Table 1, which were obtained using the experimental conditions and methods described above in this example, show the effect of different concentrations of PCP and copper complex and their combinations on the inactivation of E. coli."}, "[2]": {"tested_on": "Bone marrow-derived mast cells (MC-9 line)", "assay": "Killing of mast cells, survival by trypan blue method", "assay_type": "cell-based, mice", "conditions": "30 minutes", "method": "Bone marrow-derived mast cells (MC-9 line) were obtained from the femora of mice (line C57BL/6). The cells were cultured at 37° C. in humidified atmosphere containing 5% of CO2 in RPMI-1640, supplemented with 10% fetal calf serum, 2 mM L-glutamine, 100 U/ml penicillin, 100 μg/ml streptomycin, and 50 μM β-2-mercaptoethanol. Mast cells were grown (14 days), washed and resuspended in reaction medium (only RPMI-1640) and treated for 30 minutes as indicated above. The survival was determined by the trypan blue method."}},
  "data": [
    {"smiles": "[Cu+2].c1cnc2c(c1)ccc1cccnc12.c1cnc2c(c1)ccc1cccnc12", "note": "[Cu^II (OP)2]", "values": [
      {"measurement": "Survival (%)", "setting": "[1]; Cu^II (OP)2 1 μM", "value": 99.5, "unit": "%"}
    ]},
    {"smiles": "[Fe+2].c1cnc2c(c1)ccc1cccnc12.c1cnc2c(c1)ccc1cccnc12.c1cnc2c(c1)ccc1cccnc12", "note": "[Fe^II (OP)3]", "values": [
      {"measurement": "Survival (%)", "setting": "[2]; Fe^II (OP)3 100 (unit not given)", "value": 95.4, "unit": "%"}
    ]},
    {"smiles": "Oc1c(Cl)c(Cl)c(Cl)c(Cl)c1Cl", "note": "[PCP, Pentachlorophenol]", "values": [
      {"measurement": "Survival (%)", "setting": "[1]; PCP 0.4 mM", "value": 95.6, "unit": "%"},
      {"measurement": "Survival (%)", "setting": "[2]; PCP 0.5 mM", "value": 90.5, "unit": "%"}
    ]},
    {"smiles": "[Cu+2].c1cnc2c(c1)ccc1cccnc12.c1cnc2c(c1)ccc1cccnc12.c1cnc2c(c1)ccc1cccnc12", "note": "[[Cu^II (OP)3]^2+complex, 1,10-phenanthroline-copper [Cu^II (OP)3]^2+complex]", "values": [
      {"measurement": "activity relative to the analogous iron complex", "setting": "[1]; in combination with PCP, bacterial inactivation", "value": 100, "unit": "times"}
    ]}
  ]
}
